Experimental findings from patent US20080027042A1, “Novel Aminopyridine Derivatives Having Aurora a Selective Inhibitory Action” (priority 2004, published 2008) are described below.

Where “and” joins values, the source holds several entries; their conditions need not be identical. Identical values can stand only once. Counter-ions that a name gives are not always drawn.

One assay deals with T1, Aurora B (Homo sapiens, UniProt Q96GD4).
T1 construct: histidine tag (N); made in house; host or cells: Escherichia coli BL21-CodonPlus(DE3)-RIL
The experiment in a line: Aurora B inhibitory action (33P-ATP kinase assay, Kemptide substrate). The assay is classed as biochemical. Particulars: 100 μM ATP, 30° C., 20 minutes. An outline of the steps:
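His-tagged Aurora B expressed in E. coli, reacted with 100 μM Kemptide, 100 μM ATP plus [γ-33P]ATP in Tris pH 7.4, 15 mM Mg acetate, 0.2 mM EDTA, 30 °C, 20 min. Peptide captured on P81 filters for scintillation counting; compounds added from DMSO dilutions.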

The next assay has as its target T2, Aurora A (Homo sapiens, UniProt O14965).
T2 construct: histidine tag (N); made in house; host or cells: Escherichia coli BL21-CodonPlus(DE3)-RIL
T2 sequence (O14965 1-403): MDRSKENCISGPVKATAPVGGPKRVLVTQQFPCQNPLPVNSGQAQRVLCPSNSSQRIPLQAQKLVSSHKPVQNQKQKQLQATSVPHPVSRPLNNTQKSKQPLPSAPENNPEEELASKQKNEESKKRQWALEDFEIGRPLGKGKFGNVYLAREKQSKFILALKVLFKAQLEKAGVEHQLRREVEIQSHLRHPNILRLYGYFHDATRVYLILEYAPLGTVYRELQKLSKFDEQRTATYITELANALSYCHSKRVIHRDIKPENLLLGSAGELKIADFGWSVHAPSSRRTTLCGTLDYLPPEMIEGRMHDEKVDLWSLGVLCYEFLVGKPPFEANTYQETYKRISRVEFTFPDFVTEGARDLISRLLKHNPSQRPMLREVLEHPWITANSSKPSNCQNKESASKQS
The experiment in a line: Aurora A inhibitory action (33P-ATP kinase assay, Kemptide substrate). Conditions: 20 μM ATP, 30° C., 20 minutes. The assay is classed as biochemical. An outline of the steps: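 His-tagged Aurora A expressed in E. coli, Ni-purified; reaction in 50 mM Tris pH 7.4, 15 mM Mg acetate, 0.2 mM EDTA with 100 μM Kemptide, 20 μM ATP plus [γ-33P]ATP, 20 min at 30 °C. Phosphopeptide captured on P81 filters and counted by scintillation; DMSO control.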

In assay [1] the test system is Human cervical cancer cells (HeLa S3). The experiment in a line: Cell growth inhibitory effect, WST-8 method. Particulars: 72 h, HeLa S3, three days incubation. In kind it is cell-based. An excerpt: Method for Judging the Pharmaceutical Effect Using cells
Fetal calf serum (FCS) was purchased from Moregate Biotech, and DMEM medium was purchased from Invitrogen Corp. WST-8 was purchased from Kishida Chemical Co., Ltd.
(§1) Human cervical cancer cells (HeLa S3) were obtained from the American Type Culture Collection (ATCC).
(§2) c) Method of Judging the Effect
Cells were suspended in a DMEM medium containing 10% FCS, and the cell suspension was dispensed to a 96-well plastic plate at a rate of 750 cells/l 00 microliters per well. The plate was incubated overnight in 5% CO2-95% air at 37° C. A drug was subjected to graded dilution in dimethylsulfoxide and further diluted with a DMEM medium containing 10% FCS. Then, the dilution was dispensed to the plate on which cells had been disseminated, at a rate of 100 microliters per well. The plate was incubated for further three days in 5% CO2-95% air at 37° C. Cell growth after incubation was measured by the WST-8 method (H. Tominaga, et al., Anal. Commun., 36, 47-50 (1999)). Here, the WST-8 method refers to a method in which 20 microliters of a WST-8 reagent solution is added to each well, incubation is conducted at 37° C. for 45 minutes, the plate is stirred, and the amount of formazan produced is measured by a calorimetric method to determine the inhibitory rate of the drug. The concentration for 50% growth inhibition (EC50, IM) of the compound was determined.
A general note: Tetrazolium dyes change colour on reduction, which living cells bring about.

Assay [2] has the same test system. The experiment in a line: Effect by combined use of drugs in cells (with paclitaxel), WST-8 method. In kind it is cell-based. Conditions: three days; for inhibition at 0.1 µM: HeLa S3, compound 0.1 μM alone; for inhibition at 0.3 µM: HeLa S3, compound 0.3 μM alone; for inhibition at 1 µM: HeLa S3, compound 1.0 μM alone.
Text: Method for Judging the Effect by Combined Use of Drugs in Cells
Fetal calf serum (FCS) was purchased from Moregate Biotech, DMEM medium from Invitrogen Corp., paclitaxel (tradename: Taxol) from Sigma-Aldrich, Inc., and WST-8 from Kishida Chemical Co., Ltd.
as §1, §2
Cells were suspended in a DMEM medium containing 10% FCS, and the cell suspension was dispensed to two 96-well plastic plates at a rate of 750 cells/100 microliters per well. The plates were incubated overnight in 5% CO2-95% air at 37° C. A drug was subjected to graded dilution in dimethylsulfoxide and flurther diluted with DMSO or with a DMEM medium containing 10% FCS and also containing 2 nM paclitaxel. Then, the dilutions were each dispensed to one of the plates on which cells had been disseminated, at a rate of 100 microliters per well. The final concentration of paclitaxel at this stage was 1 nM. Also, the concentrations in the case of sole administration of the compound according to the invention were 0.03, 0.1, 0.3, 1 and 3 μM. The plates were incubated for further three days in 5% CO2-95% air at 37° C. Cell growth after incubation was measured by the WST-8 method (H. Tominaga, et al., Anal. Commun., 36, 47-50 (1999)). Here, the WST-8 method refers to a method in which 20 microliters of a WST-8 reagent solution is added to each well, incubation is conducted at 37° C. for 45 minutes, the plate is stirred, and the amount of formazan produced is measured by a colorimetric method to determine the inhibitory rate of the drug. The growth inhibitory effects of paclitaxel and of the compound according to the invention were determined, with the value obtained in sole treatment of DMSO being defined as 0%.

Setting [3] is: HeLa S3, compound 0.1 μM + paclitaxel 1 nM.
Where [4] appears, read: Homo sapiens, HeLa S3, 72 h, read-out: Cell growth inhibitory effect by sole administration of the compound of Example (%).
The mark [5] stands for this setting: HeLa S3, compound 0.3 μM + paclitaxel 1 nM.
[6] abbreviates: HeLa S3, compound 1.0 μM + paclitaxel 1 nM.

T1 sequence (Q96GD4 whole entry): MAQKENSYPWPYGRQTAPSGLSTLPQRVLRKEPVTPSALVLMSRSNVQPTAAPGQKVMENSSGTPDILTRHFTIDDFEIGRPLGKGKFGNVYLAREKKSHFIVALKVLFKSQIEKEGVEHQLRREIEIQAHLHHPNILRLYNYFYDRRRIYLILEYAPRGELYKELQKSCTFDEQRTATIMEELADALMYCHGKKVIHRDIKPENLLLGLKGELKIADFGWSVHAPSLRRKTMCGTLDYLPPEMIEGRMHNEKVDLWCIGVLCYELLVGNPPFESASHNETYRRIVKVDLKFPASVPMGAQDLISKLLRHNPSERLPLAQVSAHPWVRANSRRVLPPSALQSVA

What is called IC50 is the concentration that gives 50% inhibition. A lower IC50 goes with higher potency. With `O=C(c1ccccc1C(F)(F)F)N1CCN(Cc2cccc(Nc3ncns3)n2)CC1` [Example 39, 6-((4-(2-(trifluoromethyl)benzoyl)piperazin-1-yl)methyl)-N-1,2,4-thiadiazol-5-ylpyridin-2-amine], the results for the IC50 (on Aurora B; on Aurora A; in assay [1]) were 9100 nM, 67 nM and 11000 nM, respectively. Further, the “Cell growth inhibitory effect by combined administration of paclitaxel and the compound of Example (%)” value (from here on “Cell growth inhibitory effect … of Example (%)”) in assay [2] (HeLa S3, compound 3.0 μM + paclitaxel 1 nM) is 72.2%. In addition, the inhibition at 3 µM in assay [2] (Homo sapiens, HeLa S3, 72 h, HeLa S3, compound 3.0 μM alone, read-out: Cell growth inhibitory effect by sole administration of the compound of Example (%)) came to 5.4%.

`Cc1cccc(C(=O)N2CCN(Cc3cccc(Nc4nccs4)n3)CC2)c1F` [Example 8, 6-((4-(2-fluoro-3-methylbenzoyl)piperazin-1-yl)methyl)-N-thiazol-2-ylpyridin-2-amine]: the values for the IC50 (on Aurora B; at Aurora A; in assay [1]) were 1400 nM, 1.9 nM and 250 nM, respectively. Also, the “Cell growth inhibitory effect … of Example (%)” value in assay [2] (setting [3]) was determined as 87.1%. In addition, the inhibition at 0.1 µM in assay [2] (setting [4]) amounted to 4.6%.

Consider `O=C(c1cccc(Cl)c1F)N1CCN(Cc2cc(CO)cc(Nc3nccs3)n2)CC1` [Example 89, (2-((4-(3-chloro-2-fluorobenzoyl)piperazin-1-yl)methyl)-6-(thiazol-2-ylamino)pyridin-4-yl)methanol], for which the IC50 against Aurora B amounted to 200 nM; against Aurora A, 0.38 nM; in assay [1], 360 nM. Besides, the “Cell growth inhibitory effect … of Example (%)” value in assay [2] (setting [3]) is 85.8%. In addition, the inhibition at 0.1 µM in assay [2] (setting [4]) worked out at 19.1%.

Consider `O=C(c1cccc(Cl)c1Cl)N1CCN(Cc2cccc(Nc3cc[nH]n3)n2)CC1` [Example 17, 6-((4-(2,3-dichlorobenzoyl)piperazin-1-yl)methyl)-N-1H-pyrazol-3-ylpyridin-2-amine], for which the IC50 against Aurora B turned out to be 3200 nM; at Aurora A, 1.2 nM; in assay [1], 1100 nM. For the same molecule, the “Cell growth inhibitory effect … of Example (%)” value in assay [2] (setting [5]) was 73.8%. Also, the inhibition at 0.3 µM in assay [2] (setting [4]) was 0%.

Regarding `Cc1cc(Nc2cccc(CN3CCN(C(=O)c4cccc(Br)c4F)CC3)n2)n[nH]1` [Example 28, 6-((4-(3-bromo-2-fluorobenzoyl)piperazin-1-yl)methyl)-N-(5-methyl-1H-pyrazol-3-yl)pyridin-2-amine], the IC50 against Aurora B amounted to 310 nM; against Aurora A, 0.52 nM; in assay [1] it was 1100 nM. Besides, the “Cell growth inhibitory effect … of Example (%)” value in assay [2] (setting [5]) is 84.5%. For the same molecule, in assay [2] (setting [4]), the inhibition at 0.3 µM was found to be 0%.

On to `Cn1nnnc1-c1cc(CN2CCN(C(=O)c3cccc(Cl)c3F)CC2)nc(Nc2nccs2)c1` [Example 106, 6-((4-(3-chloro-2-fluorobenzoyl)piperazin-1-yl)methyl)-4-(1-methyl-1H-tetrazol-5-yl)-N-thiazol-2-ylpyridin-2-amine], for which the IC50 against Aurora B was found to be 400 nM; against Aurora A, 0.88 nM; in assay [1], 400 nM. For the same molecule, in assay [2] (setting [3]), the “Cell growth inhibitory effect … of Example (%)” value was 76.7%. The inhibition at 0.1 µM in assay [2] (setting [4]) amounted to 6.1%.

As to `O=C(c1cccc(C(F)(F)F)c1F)N1CCN(Cc2cccc(Nc3ncns3)n2)CC1` [Example 40, 6-((4-(2-fluoro-3-(trifluoromethyl)benzoyl)piperazin-1-yl)methyl)-N-1,2,4-thiadiazol-5-ylpyridin-2-amine], the IC50 at Aurora B was 1900 nM; at Aurora A, 0.99 nM; in assay [1] it was 6500 nM. Moreover, the “Cell growth inhibitory effect … of Example (%)” value in assay [2] (setting [6]) stood at 76.9%. Also, the inhibition at 1 µM in assay [2] (setting [4]) is 6.5%.

Take `O=C(c1cccc(Cl)c1F)N1C[C@@H]2C[C@H]1CN2Cc1cncc(Nc2cc[nH]n2)n1` [Example 46, 6-(((1S,4S)-5-(3-chloro-2-fluorobenzoyl)-2,5-diazabicyclo[2.2. 1]hept-2-yl)methyl)-N-1H-pyrazol-3-ylpyrazin-2-amine]: the IC50 on Aurora B worked out at 1400 nM; against Aurora A, 6.1 nM; in assay [1] it was 4100 nM. Also, in assay [2] (setting [6]), the “Cell growth inhibitory effect … of Example (%)” value is 75.0%. Besides, in assay [2] (setting [4]), the inhibition at 1 µM stood at 8.5%.

As for `O=C(c1ccco1)N1CCN(Cc2cccc(Nc3ncc(Cl)s3)n2)CC1` [Example 62], the IC50 on Aurora B came out at 380 nM; at Aurora A it was 12 nM; in assay [1] it was 860 nM. Besides, the “Cell growth inhibitory effect … of Example (%)” value in assay [2] (setting [3]) was determined as 68.0%. In assay [2] (setting [4]), the inhibition at 0.1 µM worked out at 2.9%.

As for `CC(=O)O[C@H]1C(=O)[C@@]2(C)[C@H]([C@H](OC(=O)c3ccccc3)[C@]3(O)C[C@H](OC(=O)[C@H](O)[C@@H](NC(=O)c4ccccc4)c4ccccc4)C(C)=C1C3(C)C)[C@]1(OC(C)=O)CO[C@@H]1C[C@@H]2O` [paclitaxel, reference compound], the “Cell growth inhibitory effect by sole administration of paclitaxel (1 nM) (%)” value in assay [2] (HeLa S3, paclitaxel 1 nM alone) was 37.8% and 45.4% and 43.3% and 36.8%. In addition, the inhibition at 0.001 µM in assay [2] (Homo sapiens, HeLa S3, 72 h, HeLa S3, paclitaxel 1 nM alone, read-out: Cell growth inhibitory effect by sole administration of paclitaxel (1 nM) (%)) was 44.1%.

`Cc1cnc(Nc2cccc(CN3CCN(C(=O)c4cccc(Cl)c4F)CC3)n2)s1` [Example 42, 6-((4-(3-chloro-2-fluorobenzoyl)piperazin-1-yl)methyl)-N-(5-methyl-thiazol-2-yl)pyridin-2-amine trifluoroacetate]: the values for the IC50 at Aurora B and on Aurora A were 530 nM and 1 nM, respectively.

Consider `O=C(c1cc(CN2CCN(C(=O)c3cccc(Cl)c3F)CC2)nc(Nc2nccs2)c1)N1CCCC1` [Example 84, 6-((4-(3-chloro-2-fluorobenzoyl)piperazin-1-yl)methyl)-4-(pyrrolidin 1-ylcarbonyl)-N-thiazol-2-ylpyridin-2-amine trifluoroacetate], for which the IC50 on Aurora B worked out at 400 nM; against Aurora A, 0.72 nM.

For the molecule “6-((4-(3-(dimethylamino)benzoyl)piperazin-1-yl)methyl)-N-(5-chlorothiazol-2-yl)pyridin-2-amine [Example 73]”, the IC50 on Aurora B was found to be 410 nM; against Aurora A it was 17 nM.
